Test results taken from the supplement of paper PMC10307832.

How the values were obtained:
Assay in all cases: relative viability (nuclei count vs DMSO), 5 days (fraction); higher = more cells survive
Dovitinib + Tozasertib = compound: CN1CCN(c2ccc3nc(-c4c(N)c5c(F)cccc5[nH]c4=O)[nH]c3c2)CC1 [Dovitinib] + Cc1cc(Nc2cc(N3CCN(C)CC3)nc(Sc3ccc(NC(=O)C4CC4)cc3)n2)n[nH]1 [Tozasertib] (partner 0.1 µM)
How it was run: (§1)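 After 5 days of treatment, lung cancer cells in 1536-well plates were fixed and stained in a single step (final 0.05% Triton X-100, 1% formaldehyde, 1 ug/ml Hoechst) and their nuclei counted on 4× images. Treatment had been applied by pin tool the day after seeding as one drug alone or as a fixed anchor-drug dose with five library-drug doses (not always all listed) in √10 steps. Relative viability is the nuclei count of treated wells divided by that of vehicle wells, and values are medians of duplicate plates.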

Dovitinib + Foretinib = compound: CN1CCN(c2ccc3nc(-c4c(N)c5c(F)cccc5[nH]c4=O)[nH]c3c2)CC1 [Dovitinib] + COc1cc2c(Oc3ccc(NC(=O)C4(C(=O)Nc5ccc(F)cc5)CC4)cc3F)ccnc2cc1OCCCN1CCOCC1 [Foretinib] (partner 0.25 µM)
How it was run: as §1

Dovitinib + AZD7762 = compound: CN1CCN(c2ccc3nc(-c4c(N)c5c(F)cccc5[nH]c4=O)[nH]c3c2)CC1 [Dovitinib] + NC(=O)Nc1cc(-c2cccc(F)c2)sc1C(=O)N[C@H]1CCCNC1 [AZD7762] (partner 0.2 µM)
How it was run: as §1

Dovitinib + Luminespib = compound: CN1CCN(c2ccc3nc(-c4c(N)c5c(F)cccc5[nH]c4=O)[nH]c3c2)CC1 [Dovitinib] + CCNC(=O)c1noc(-c2cc(C(C)C)c(O)cc2O)c1-c1ccc(CN2CCOCC2)cc1 [Luminespib] (partner 0.01 µM)
How it was run: as §1

Cell Line | relative viability (Dovitinib + Tozasertib; first compound 0.02 µM) | relative viability (Dovitinib + Tozasertib; first compound 0.06325 µM) | relative viability (Dovitinib + Tozasertib; first compound 0.2 µM) | relative viability (Dovitinib + Tozasertib; first compound 0.6325 µM) | relative viability (Dovitinib + Tozasertib; first compound 2 µM) | relative viability (Dovitinib + Foretinib; first compound 0.02 µM) | relative viability (Dovitinib + Foretinib; first compound 0.06325 µM) | relative viability (Dovitinib + Foretinib; first compound 0.2 µM) | relative viability (Dovitinib + Foretinib; first compound 0.6325 µM) | relative viability (Dovitinib + Foretinib; first compound 2 µM) | relative viability (Dovitinib + AZD7762; first compound 0.02 µM) | relative viability (Dovitinib + AZD7762; first compound 0.06325 µM) | relative viability (Dovitinib + AZD7762; first compound 0.2 µM) | relative viability (Dovitinib + AZD7762; first compound 0.6325 µM) | relative viability (Dovitinib + AZD7762; first compound 2 µM) | relative viability (Dovitinib + Luminespib; first compound 0.02 µM) | relative viability (Dovitinib + Luminespib; first compound 0.06325 µM) | relative viability (Dovitinib + Luminespib; first compound 0.2 µM) | relative viability (Dovitinib + Luminespib; first compound 0.6325 µM) | relative viability (Dovitinib + Luminespib; first compound 2 µM)
LC-2-ad | 0.563 | 0.487 | 0.465 | 0.369 | 0.498 | 0.989 | 0.946 | 1.03 | 0.911 | 1.05 | 0.842 | 0.835 | 0.819 | 0.883 | 0.88 | 0.991 | 0.994 | 1.01 | 0.979 | 0.995
LCLC-97TM1 | 0.243 | 0.207 | 0.231 | 0.195 | 0.235 | 0.986 | 0.974 | 1.01 | 0.922 | 1.01 | 0.247 | 0.239 | 0.298 | 0.395 | 0.315 | 0.953 | 0.746 | 0.831 | 0.801 | 0.701
LCLC-103H | 0.539 | 0.414 | 0.477 | 0.415 | 0.53 | 0.901 | 0.674 | 0.826 | 0.79 | 0.764 | 0.777 | 0.802 | 0.784 | 0.704 | 0.699 | 0.963 | 1 | 1.01 | 0.885 | 0.922
LK-2 | 0.175 | 0.182 | 0.182 | 0.181 | 0.149 | 1.39 | 1.21 | 1.4 | 0.946 | 1.04 | 0.402 | 0.549 | 0.308 | 0.408 | 0.274 | 0.191 | 0.162 | 0.179 | 0.219 | 0.182
LOU-NH91 | 0.708 | 0.659 | 0.611 | 0.678 | 0.776 | 0.926 | 0.896 | 0.95 | 0.921 | 1.05 | 0.783 | 0.736 | 0.707 | 0.778 | 0.783 | 0.322 | 0.308 | 0.335 | 0.327 | 0.349
LU99A | 0.222 | 0.226 | 0.272 | 0.239 | 0.251 | 0.714 | 0.782 | 0.79 | 0.812 | 0.932 | 0.294 | 0.469 | 0.358 | 0.277 | 0.387 | 0.243 | 0.221 | 0.27 | 0.282 | 0.254
LXF-289 | 0.214 | 0.228 | 0.195 | 0.189 | 0.171 | 0.99 | 1.01 | 0.882 | 1.02 | 0.953 | 1.07 | 1.06 | 1.07 | 1.13 | 1.05 | 0.722 | 0.683 | 0.737 | 0.677 | 0.663
NCI-H23 | 0.293 | 0.475 | 0.581 | 0.354 | 0.358 | 0.899 | 0.913 | 1.09 | 0.962 | 0.983 | 0.287 | 0.233 | 0.23 | 0.275 | 0.377 | 0.194 | 0.219 | 0.201 | 0.229 | 0.24
NCI-H322M | 0.482 | 0.497 | 0.523 | 0.436 | 0.493 | 0.95 | 0.898 | 0.941 | 0.923 | 0.869 | 0.555 | 0.738 | 0.725 | 0.541 | 0.398 | 0.835 | 0.883 | 0.831 | 0.803 | 0.792
NCI-H358 | 0.104 | 0.101 | 0.115 | 0.11 | 0.106 | 0.619 | 0.674 | 0.683 | 0.626 | 0.761 | 0.483 | 0.518 | 0.444 | 0.544 | 0.517 | 0.31 | 0.306 | 0.428 | 0.813 | 0.306
NCI-H441 | 0.668 | 0.599 | 0.559 | 0.626 | 0.575 | 0.832 | 1.08 | 0.774 | 1.11 | 1.05 | 1.17 | 0.977 | 1.22 | 1.2 | 1.27 | 0.351 | 0.382 | 0.286 | 0.32 | 0.342
NCI-H460 | 0.495 | 0.472 | 0.421 | 0.418 | 0.461 | 1 | 1.03 | 1.12 | 0.918 | 1.03 | 0.611 | 0.662 | 0.54 | 0.61 | 0.556 | 0.0302 | 0.034 | 0.0441 | 0.0303 | 0.0426
NCI-H596 | 0.985 | 0.982 | 0.963 | 0.838 | 0.754 | 0.84 | 0.614 | 0.848 | 0.961 | 0.874 | 1.17 | 1.09 | 1 | 1.03 | 1.1 | 1.12 | 1.11 | 0.942 | 1.16 | 0.835
NCI-H647 | 0.297 | 0.317 | 0.452 | 0.279 | 0.315 | 1.23 | 1.15 | 1.39 | 1.17 | 1.26 | 0.42 | 0.404 | 0.493 | 0.522 | 0.398 | 0.16 | 0.192 | 0.127 | 0.183 | 0.179
NCI-H650 | 0.713 | 0.689 | 0.725 | 0.824 | 0.854 | 0.955 | 1.02 | 1.1 | 1 | 1.15 | 1.05 | 1.35 | 0.951 | 1.08 | 1 | 0.798 | 0.667 | 0.808 | 0.744 | 0.788
NCI-H727 | 0.573 | 0.658 | 0.588 | 0.691 | 0.761 | 0.815 | 0.689 | 0.747 | 0.799 | 0.706 | 0.639 | 0.536 | 0.597 | 0.637 | 0.555 | 0.272 | 0.373 | 0.285 | 0.322 | 0.373
